Experimental data published in patent US20190117713A1, “ANTIBACTERIAL COMPOSITION” (FermBiotics Holding ApS, priority 2016, published 2019).

Tested on: streptococcus infection
Assay: Treatment of a patient suffering from a streptococcus infection (case report)
Settings: treatment repeated 4 times more

phenoxymethylpenicillinsodium
Improvement of streptococcus infection after repeated treatment: no significant improvement
